Test results as given in patent publication US8883745B2, “C—glycolipids with enhanced Th-1 profile” (New York University, priority 2006, dated 2014).

Experiments:
IFN-γ = experiment: In vitro IFN-γ ELISPOT assay using PBMCs and immature DCs; assay type: cell-based, human; settings: 100 ng/ml glycolipid, 22-26 hours co-culture with immature DCs
Protocol: CD14+ cells were isolated from leukopaks, using magnetic beads (Miltenyi biotec, Auburn, Calif.) coupled to an anti-CD14 monoclonal antibody. Immature dendritic cells (DCs) were then generated from the CD14+ cells after a three-day incubation in the presence of 300 U/ml GM-CSF (R&D systems, Minneapolis, Minn.) and 100 U/ml IL-4 (R&D systems, Minneapolis, Minn.). CD14-cells were used as Peripheral Blood Mononuclear Cells (PBMCs) for the following experiments.
96 well nitrocellulose plates (Milititer HA, Millipore) were coated with 10 μg/ml of anti-human interferon γ mAb (Mabtech, Ohio), contained in 75 μl of PBS. After overnight incubation at room temperature, the wells were washed repeatedly and blocked with culture medium for 1 hour at 37° C. Following irradiation with 3000 rads, 5×10^4 immature dendritic cells were co-cultured with 5×10^5 of syngeneic CD14− PBMCs in the presence of 100 ng/ml of various glycolipids (i.e., GCK109 [A-1 trans-conformer], GCK151 [A-1 cis-conformer], GCK127 [A-2], GCK152 [A-7], and control compounds CRONY=α-C-GalCer and KRN=α-GalCer) in the ELISPOT plate for 22-26 hours at 37° C. and 5% CO2. […] After 10 to 15 minutes, the number of spots corresponding to IFN-γ secreting cells was determined using a stereomicroscope. […]

IL-4 = experiment: In vitro IL-4 ELISPOT assay using PBMCs and immature DCs; assay type: cell-based, human; settings: 100 ng/ml glycolipid, 22-26 hours co-culture with immature DCs

Compound	frequency of PBMCs secreting IFN-γ (ELISPOT), compared with KRN (IFN-γ)	frequency of PBMCs secreting IL-4 (ELISPOT), compared with KRN (IL-4)
CCCCCCCCCCCCCC[C@@H](O)[C@@H](O)[C@H](/C=C/[C@H]1OC(CO)[C@H](O)[C@H](O)C1O)NC(=O)CCCCCCCc1ccccc1 (stereo partly shown) [A-7]	high frequency	high frequency
CCCCCCCCCCCCCCCCCC/C=C\CCCCCCCCC(=O)N[C@@H](/C=C/[C@H]1OC(CO)[C@H](O)[C@H](O)C1O)[C@H](O)[C@H](O)CCCCCCCCCCCCCC (stereo partly shown) [GCK151]	high frequency	high frequency
